# Experimental data taken from paper PMC8151276, “An Integrated Approach toward NanoBRET Tracers for Analysis of GPCR Ligand Engagement” (Molecules, 2021).
# Target: T1, NPY4R (Homo sapiens, UniProt P50391)
# T1 construct: purchased Promega (in-house HiBiT-GPCR construct library, NanoBRET)
# Assay: NanoBRET screen HiBiT-NPY4R in HEK293
# Type: binding
# Description: Each tracer candidate was screened across the entire library of HiBiT-GPCR constructs using NanoBRET as the detection modality. As depicted in Figure 4A, the specificity of interactions was evaluated through decrease in BRET due to competitive displacement of a bound tracer by excess parental compound. Each tracer was analyzed for binding to each HiBiT-GPCR fusion in the absence and in the presence of competing parental compound. Briefly, HEK293 cells were transfected with HiBiT-GPCR constructs diluted into promoterless DNA to reduce expression and maximize translocation to the cell surface. Each tracer candidate was then screened at concentrations of 1 μM and 0.1 μM across cells expressing these fusions. Cells were treated for 1.5 h with tracer either alone or in the presence of 20 μM competing parental compound (i.e., control). BRET was measured upon addition of purified LgBiT and subsequent complementation with HiBiT genetically fused to a GPCR. The specificity of interactions was assessed through a decrease in BRET signal due to competitive displacement of the bound tracer. To further gauge the robustness of these interactions, the fold response over the control (i.e., BRETtracer/BRETcontrol) was calculated. We chose a 1.5-fold response, which translates to ≥7-fold signal over noise as the minimal threshold required to score an interaction as positive.
# HiBiT-GPCR DNA constructs were diluted in 10 mM Tris pH 8 to a final concentration of 0.01 μg/μL, arrayed in 96-well plates and stored at −20 °C. For transfection, HEK293 cells were suspended in Opti-MEM (without phenol red) supplemented with 2% fetal bovine serum (Seradigm) and 100 units/mL penicillin–streptomycin (Gibco) at a final concentration of 220,000 cells/mL and dispensed into white 96-well plates at 90 μL/well. Subsequent transfections and screens were carried using an Agilent Bravo Automated Liquid Handling Platform. First, the 96-well HiBiT DNA arrays were diluted 25-fold in Opti-MEM (without serum or phenol red) to a final concentration of 0.0004 μg/μL and 20 μL of the diluted DNAs were transferred into new 96-well plates. Next, promoterless carrier DNA (1 μg/μL) was diluted 25-fold (0.04 μg/μL) and then dispensed into the diluted arrays at 20 μL/well. Following brief mixing, Viafect transfection reagent (Promega) diluted 16-fold into Opti-MEM was dispensed into the plates at 40 μL/well. After mixing by pipetting, plates were incubated for 10 min on the pipetting station deck. The DNA-transfection reagent complexes were then added to plates containing cells. To facilitate the screen, 10 μL of DNA-transfection reagent complexes were added in duplicates to the top 4 and bottom 4 rows, resulting in two identical 48-well arrays per plate. Plates with transfected cells were incubated for 18–20 h at 37 °C/5% CO2. A screen of each tracer across the entire library using two different concentrations requires duplicate plates of transfected cells. Depending on the number of tracers being screened, transfections can be scaled up using the same ratios. The next day, for each tracer, four 20× screening solutions in tracer dilution buffer (Promega) were prepared: two duplicates at final concentration of 20 μM and two duplicates at a final concentration of 2 μM. […] The four resulting solutions were diluted 4-fold in Opti-MEM without serum or phenol red to generate 5× solutions (5 µM and 0.5 µM tracer +/− 100 μM competing compound). To screen the library, a BioTek MultiFlo FX liquid dispenser was used to dispense 22.5 µL of tracer solution to the top 4 rows and 22.5 µL tracer + competing compound solution to the 4 bottom rows. Plates were briefly mixed on an orbital shaker and incubated for 1.5 h at room temperature. […] Plates were briefly mixed on an orbital shaker and incubated for 15 min to allow complementation.
# T1 sequence (P50391 whole entry): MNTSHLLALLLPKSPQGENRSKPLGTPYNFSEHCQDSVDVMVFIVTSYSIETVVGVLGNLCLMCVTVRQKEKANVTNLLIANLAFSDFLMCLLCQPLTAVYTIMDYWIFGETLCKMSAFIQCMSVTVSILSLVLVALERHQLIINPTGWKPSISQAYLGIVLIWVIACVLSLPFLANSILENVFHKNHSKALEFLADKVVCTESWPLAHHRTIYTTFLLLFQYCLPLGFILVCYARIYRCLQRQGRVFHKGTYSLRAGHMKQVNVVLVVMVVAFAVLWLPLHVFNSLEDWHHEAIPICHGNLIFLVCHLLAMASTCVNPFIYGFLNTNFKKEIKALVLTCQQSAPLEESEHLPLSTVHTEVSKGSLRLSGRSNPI
Compound,"NanoBRET Fold Response (NPY4R, tracer 0.1μM)","NanoBRET Fold Response (NPY4R, tracer 1μM)",further results
Cc1nc2n(c(=O)c1CCN1CCC(c3noc4cc(F)ccc34)CC1)CCCC2OC(=O)NCCOCCOCCOCCOCCNC(=O)CCc1ccc2n1[B-](F)(F)[N+]1=C(c3ccc[nH]3)C=CC1=C2 (stereo not shown) [Risperidone-2-NB590],0.95,1.02,
CCOC(=O)c1cc(C#N)c(N2CCC(C(=O)NS(=O)(=O)Cc3ccccc3/C=C/C(=O)NCCNC(=O)CCc3ccc4n3[B-](F)(F)[N+]3=C(c5ccc[nH]5)C=CC3=C4)CC2)nc1C [AZD1283-1-NB590],,,"NanoBRET Fold Response (NPY4R, 0.1μM): 1.02; NanoBRET Fold Response (NPY4R, 1μM): 1.03"
Cc1cc2c(s1)Nc1ccccc1N=C2N1CCN(CCCNC(=O)CCOCCOCCOCCOCCNC(=O)CCc2ccc3n2[B-](F)(F)[N+]2=C(c4ccc[nH]4)C=CC2=C3)CC1 [Olanzapine-a-2-NB590],1.01,0.91,
COc1ccccc1N1CCN(CCCCN2C(=O)c3ccc(CNC(=O)CCOCCNC(=O)c4ccc(CNC(=O)CCc5ccc6n5[B-](F)(F)[N+]5=C(c7ccc[nH]7)C=CC5=C6)cc4)cc3C2=O)CC1 [NAN-190-3-NB590],1.06,0.95,
CC(C)N(CC[C@H](c1ccccc1)c1cc(CCNC(=O)CCOCCOCCOCCOCCNC(=O)CCc2ccc3n2[B-](F)(F)[N+]2=C(c4ccc[nH]4)C=CC2=C3)ccc1O)C(C)C [Tolterodine-2-NB590],0.86,1.09,
CN(C)CCC=C1c2ccccc2CCc2ccc(C(=O)NCCNC(=O)CCOCCOCCOCCOCCNC(=O)CCc3ccc4n3[B-](F)(F)[N+]3=C(c5ccc[nH]5)C=CC3=C4)cc21 [Amitriptyline-b-2-NB590],,,"NanoBRET Fold Response (tracer at 1μM, listed as amitriptyline-b-2-NB590): 1.03"
O=C(CCOCCOCCOCCOCCNC(=O)CCc1ccc2n1[B-](F)(F)[N+]1=C(c3ccc[nH]3)C=CC1=C2)NCCCN1CCN(C2=Nc3ccccc3Oc3ccc(Cl)cc32)CC1 [Loxapine-a-2-NB590],0.99,1.10,
CN(C)CCC=C1c2ccccc2CCc2ccc(C(=O)NCCNC(=O)CCOCCOCCOCCOCCNC(=O)CCc3ccc4n3[B-](F)(F)[N+]3=C(c5ccc[nH]5)C=CC3=C4)cc21 [Amitriptyline-a-2-NB590],,,NanoBRET Fold Response (tracer at 0.1μM): 1.11; NanoBRET Fold Response (tracer at 1μM): 0.96
O=C(CCc1ccc2n1[B-](F)(F)[N+]1=C(c3ccc[nH]3)C=CC1=C2)NCCOCCOCCNC(=O)OCCOCCN1CCN(C2=Nc3ccccc3Sc3ccccc32)CC1 [Quetiapine-a-2-NB590],1.06,0.73,
COc1ccccc1N1CCN(CCCCN2C(=O)c3ccc(CNC(=O)CCOCCOCCOCCOCCNC(=O)CCc4ccc5n4[B-](F)(F)[N+]4=C(c6ccc[nH]6)C=CC4=C5)cc3C2=O)CC1 [NAN-190-2-NB590],0.95,1.04,
COc1ccc2[nH]c(-c3ccc(CNC(=O)CCOCCOCCOCCOCCNC(=O)CCc4ccc5n4[B-](F)(F)[N+]4=C(c6ccc[nH]6)C=CC4=C5)cc3)c(CCNC(C)=O)c2n1 [AzomelatoninICO9-2-NB590],,,NanoBRET Fold Response (0.1μM tracer): 1.11; NanoBRET Fold Response (1μM tracer): 0.94
O=C(CCOCCOCCOCCOCCNC(=O)CCc1ccc2n1[B-](F)(F)[N+]1=C(c3ccc[nH]3)C=CC1=C2)NCCCN1CCN(C2=Nc3cc(Cl)ccc3Nc3ccccc32)CC1 [Clozapine-a-2-NB590],,,"NanoBRET Fold Response (NPY4R, 0.1μM tracer): 0.88; NanoBRET Fold Response (NPY4R, 1μM tracer): 1.40"
CCCn1c(=O)c2[nH]c(-c3ccc(OCC(=O)NCCNC(=O)CCOCCNC(=O)c4ccc(CNC(=O)CCc5ccc6n5[B-](F)(F)[N+]5=C(c7ccc[nH]7)C=CC5=C6)cc4)cc3)nc2n(CCC)c1=O [XAC-3-NB590],0.97,0.86,
O=C(CCc1ccc2n1[B-](F)(F)[N+]1=C(c3ccc[nH]3)C=CC1=C2)NCc1ccc(C(=O)NCCOCCOCCNCC(O)COc2cccc3ccccc23)cc1 (stereo not shown) [Propranolol-3-NB590],,,"NanoBRET Fold Response (NPY4R, 0.1μM): 0.98; NanoBRET Fold Response (NPY4R, 1μM): 0.99"
O=C(CCc1ccc2n1[B-](F)(F)[N+]1=C(c3ccc[nH]3)C=CC1=C2)NCc1ccc(C(=O)NCCOCCC(=O)N[C@@H]2CC[C@@]3(O)[C@H]4Cc5ccc(O)c6c5[C@@]3(CCN4CC3CC3)[C@H]2O6)cc1 [Naltrexone-3-NB590],1.04,0.91,
N#CN=C(NCCCOc1cccc(CN2CCCCC2)c1)NCCNC(=O)CCOCCOCCOCCOCCNC(=O)CCc1ccc2n1[B-](F)(F)[N+]1=C(c3ccc[nH]3)C=CC1=C2 [Aminopotentidine-2-NB590],1.01,0.98,
COc1ccc2c(n1)c(CCNC(C)=O)cn2CCNC(=O)CCc1ccc2n1[B-](F)(F)[N+]1=C(c3ccc[nH]3)C=CC1=C2 [Azamelatonin-1-NB590],,,NanoBRET Fold Response (0.1μM tracer): 1.11; NanoBRET Fold Response (1μM tracer): 1.08
CC(C)N(CC[C@H](c1ccccc1)c1cc(CCNC(=O)c2ccc(CNC(=O)CCc3ccc4n3[B-](F)(F)[N+]3=C(c5ccc[nH]5)C=CC3=C4)cc2)ccc1O)C(C)C [Tolterodine-BZ-NB590],0.88,0.98,
CN1CCN(C2=Nc3cc(Cl)ccc3Nc3ccc(CNC(=O)CCOCCOCCOCCOCCNC(=O)CCc4ccc5n4[B-](F)(F)[N+]4=C(c6ccc[nH]6)C=CC4=C5)cc32)CC1 [Clozapine-b-2-NB590],,,"NanoBRET Fold Response (NPY4R, 0.1μM tracer): 1.02; NanoBRET Fold Response (NPY4R, 1μM tracer): 1.08"
